Test results taken from US10932484B2, “Inhibitory activity of acetogenins against Listeria monocytogenes” (INSTITUTO TECHNOLOGICO Y DE ESTUDIOS SUPERIORES DE MONTERREY, priority 2016, dated 2021).
≈ marks a conversion by molar mass, not a printed value.

Key:
[1] = test system: Listeria monocytogenes (ATCC 35152); experiment: Disc diffusion assay; assay type: cell-based; details: for Inhibition zones of isolated acetogenins (in words): isolated molecules at 15 μg disc^−1, 37° C., 24 h; for Potency relative to Mirenat® in disc diffusion: 15 μg disc^−1 vs Mirenat® at 15 μg disc^−1 LAE
Experimental: Listeria monocytogenes (ATCC 35152) was acquired from the American Type Culture Collection (Manassas, Va., USA). For experimentation, frozen stocks were first activated in Brain Heart Infusion (BHI) broth (Becton, Dickinson and Co., Franklin Lakes, N.J., USA) for 16-18 h at 37° C. A sub-culture was prepared under the same growth conditions to 3⁄4 log phase (6-7 h). At this stage, cells were adjusted with BHI to an initial optical density (OD) at 600 nm of 0.15, which corresponded to 8×10^6 CFU mL^-1 and served as the inoculum for the following antimicrobial assays. Aliquots (100 μL) of the cell suspension described above were evenly spread with a sterile plastic rod on the surface of agar plates. Sterile filter paper disks (Whatman No. 1, 6 mm) were impregnated with aliquots (5 μL) of the antimicrobial solution (EAE, Avosafe® and isolated acetogenins) freshly prepared at 3000 ppm in 96% food grade ethanol to delivered 15 μg disc^-1 of active compounds. All solutions were sonicated for 5 min (Branson 2510, Branson Ultrasonics, Danbury, Conn., USA) and vortexed for 30 s before dispensing the corresponding volumes. The disks were air-dried for approximately 1 h in a biological safety cabinet before placed into the inoculated plate. Antimicrobials were tested in triplicate, one disk per plate to account for plate variability. Vehicle and positive controls were also incorporated into each plate and contemplated 5 μl of 96% ethanol and […]® at 3000 ppm LAE in sterile deionized water. Each plate contained at most six disks evenly distributed. Plates were incubated for 24 h at 37° C. After, diameters of inhibition zones were measured to the nearest millimeter.

[2] = test system: Listeria monocytogenes (ATCC 35152); experiment: Minimum inhibitory concentration (MIC) and minimum bactericidal concentration (MBC), broth dilution; assay type: cell-based; details: 37° C.; for MBC/MIC ratio: ≤4 bactericidal, >4 bacteriostatic; for MBC / MIC: Listeria monocytogenes, ATCC35152, 24 h
Experimental: Listeria monocytogenes (ATCC 35152) was acquired from the American Type Culture Collection (Manassas, Va., USA). For experimentation, frozen stocks were first activated in Brain Heart Infusion (BHI) broth (Becton, Dickinson and Co., Franklin Lakes, N.J., USA) for 16-18 h at 37° C. A sub-culture was prepared under the same growth conditions to ¾ log phase (6-7 h). At this stage, cells were adjusted with BHI to an initial optical density (OD) at 600 nm of 0.15, which corresponded to 8×10^6 CFU mL^−1 and served as the inoculum for the following antimicrobial assays.
Stock solutions (25000-5000 ppm) of EAE, Avosafe® and isolated molecules were prepared in ≥99.5% food-grade propylene glycol (PG) (Sigma Aldrich, St. Louis, Mo., USA) and stored in brown vials at −80° C. Working solutions in culture media were prepared from room temperature acclimatized stock solutions that were sonicated (5 min) and vortexed (30 s) as described above. Culture medium was adjusted to 4% w/v PG to account for the effect of the vehicle in all concentrations tested and sets of experiments. Prior tests were conducted to confirm that 4% PG had no effect on growth. Serial 2-fold dilutions of samples, in a range of concentrations from 125 to 0.98 ppm, were prepared in sterile 96-well clear polystyrene microplates (Cat. No. 3370, Corning, Corning, N.Y., USA) or disposable test tubes (VWR, Radnor, Pa., USA) to a final volume of 300 μL or 1 mL, respectively. The experimentation scale was determined by the amount of test product available. Each well or tube was inoculated with 10% v/v liquid phase of the cell suspension (OD600 nm 0.15) as previously described. A growth control (no antimicrobial added), an aseptic control (uninoculated), and a positive control (Mirenat®) were also examined. After 24 h at 37° C., the MIC was defined as the lowest concentration at which no visual growth was assessed by turbidity (Levison, M. E., “Pharmacodynamics of Antimicrobial Drugs,” Infect. Dis. Clin. North. Am. 18(3):451-65 (2004), which is hereby incorporated by reference in its entirety). […] Then, the pellet was resuspended in antimicrobial-free medium and incubated for 24 h at 37° C. The MBC was defined as the lowest concentration showing no growth (Levison, M. E., “Pharmacodynamics of Antimicrobial Drugs,” Infect. Dis. Clin. North. Am. 18(3):451-65 (2004), which is hereby incorporated by reference in its entirety). All tests were independently replicated (n=3) and performed with technical triplicates.

[3] = Effect of thermal processing and storage on acetogenins concentration in sausages; assay type: physicochemical; details: sausages with 10,000 ppm Avosafe®, cooking and pasteurization
Excerpt: Effect of thermal processing and storage on acetogenins concentration. Acetogenins in sausages (Treatment A: un-cooked, day 0 and 90) were extracted and quantified as reported by Salinas-Salazar et al, “Inhibitory Activity of Avocado Seed Fatty Acid Derivatives (Acetogenins) Against Listeria Monocytogenes” J Food Sci 82: 134-44 (2016), which is hereby incorporated by reference in its entirety, with some modifications. Three grams (3 g) of sample were homogenized with acetone (1:5, w/v) using an Ultra-Turrax T25 homogenizer (IKA Works, Willmington, N.C., USA.) at 11000 rpm for 3 min, sonicated for 5 min, and centrifuged at 3600 rpm for 6 min (5° C.). Supernatants were collected and the precipitated material was extracted again two times, as mentioned above. After, supernatants were mixed and the solvent was evaporated at 35° C. using a rotary evaporator (Büchi R-210, Büchi Labortechnik AG, Switzerland) under high vacuum (22 in Hg). Residue was partitioned in 10 mL hexane:methanol (1:1). After 30 s of vortex, phases were separated by centrifugation (4000 rpm, 10 min) and the lower phase (methanol) was recovered and washed two more times with hexane, taken to dryness under nitrogen gas, resuspended in 1 mL isopropanol and passed through a 0.45 μm PTFE filter prior to HPLC injection. Agilent HPLC systems (Santa Clara, Calif., USA) 1260 Infinity series coupled to a G4212B photodiode array detector (PDA) and an evaporative light scattering detector G4218A was used. The PDA detector was set at 220 and 208 nm (Rodríguez-López, “A Targeted Metabolomics Approach to Characterize Acetogenin Profiles in Avocado Fruit (Persea americana Mill.)” RSC Adv 5: 106019-29 (2015), which is hereby incorporated by reference in its entirety).

[4] = lactating mice; cited from earlier work
[5] = dose of 100 mg kg^−1 of body weight; cited from earlier work
[6] = test system: C. sporogenes; details: cited from earlier work

## C#CCC/C=C/CCCCCCC[C@H](O)CC(O)COC(C)=O (stereo in doubt) [AcO-avocadenyne, 1-acetoxy-2,4-dihydroxy-heptadec-12-en-16-yne]
[1]; 15 μg disc^−1, FIG. 4
  Antimicrobial activity relative to AcO-avocadene: 4 times
[2]
  MBC/MIC ratio: 2
  MBC: 31.2 µg/mL (≈ 96.2 µM)
  MIC: 15.6 µg/mL (≈ 48.1 µM)

## C=CCCCCCCCCCCC[C@H](O)C[C@H](O)COC(C)=O [AcO-avocadene, (2S,4S)-1-acetoxy-2,4-dihydroxy-n-heptadeca-16-ene]
[1]
  Inhibition zones of isolated acetogenins (in words): least potent
[3]
  Processing losses compared to unprocessed control (in words): no statistically significant

## C=CCCCCCCCCCC=CC(O)CC(O)COC(C)=O (stereo not drawn) [AcO-avocadiene A, 1-Acetoxy-2,4-dihydroxy-heptadeca-5,16-diene]
[1]
  Inhibition zones of isolated acetogenins (in words): did not produce inhibition zones
[3]
  Processing losses compared to unprocessed control (in words): no statistically significant

## C#CCCCCCCCCCCCC(O)CC(O)COC(C)=O (stereo not drawn) [AcO-avocadyne, 1-acetoxy-2,4-dihydroxy-heptadec-16-yne]
[1]
  Inhibition zones of isolated acetogenins (in words): did not produce inhibition zones

## CCCCC/C=C\C/C=C\CCCCC/C=C/C(=O)C[C@@H](O)COC(C)=O [Persenone A, (2R,5E,12Z,15Z)-1-acetoxy-2-hydroxy-4-oxoheneicosa-5,12,15-triene]
[1]
  Potency relative to Mirenat® in disc diffusion: around 3 fold
  Inhibition zones of isolated acetogenins (in words): highest inhibition zones
[3]
  Processing losses compared to unprocessed control (in words): no statistically significant
[2]
  MBC/MIC ratio: 2
  MBC: 15.6 µg/mL (≈ 41.2 µM)
  MIC: 7.8 µg/mL (≈ 20.6 µM)

## CCCCCCCCCCCCC/C=C/C(=O)C[C@@H](O)COC(C)=O [Persenone B, (5E)-1-acetoxy-2-hydroxy-4-oxononadeca-5-ene]
[3]
  Processing losses compared to unprocessed control (in words): no statistically significant

## CC/C=C/CCCCCCCCC/C=C/C(=O)C[C@@H](O)COC(C)=O [Persenone C, (2R,5E,16E)-1-acetoxy-2-hydroxy-4-oxononadeca-5,16-diene]
[1]
  Potency relative to Mirenat® in disc diffusion: around 3 fold
  Inhibition zones of isolated acetogenins (in words): highest inhibition zones

## CCCCC/C=C\C/C=C\CCCCCCCC(=O)C[C@@H](O)COC(C)=O [Persin, (2R,12Z,15Z)-1-acetoxy-2-hydroxy-4-oxoheneicosa-12,15-diene]
[4]
  Toxic acute doses: 60-100 mg kg^−1 body weight
[5]
  Effect in liver injury (in words): protective effect
[6]
  Antimicrobial activity against C. sporogenes (in words): minimal
